Reference: ChEMBL document CHEMBL5380844, “Discovery of a Novel, Potent, Orally Active, and Safe Inhibitor Targeting Human Mitochondrial RNA Polymerase” (J Med Chem, 2023)
Calls of active or inactive are those of the source. The calls are words filed in the database; no cut-off is given here.

What was measured:
A2780 [1] = assay: Inhibition of colony formation in human A2780 cells assessed as appearance of smaller colonies at upto 500 nM incubated for 14 days by crystal violet staining based analysis; assay type: functional, cell-based; settings: time 14.0 day
A2780 [2] = assay: Inhibition of colony formation in human A2780 cells at 500 nM incubated for 14 days by crystal violet staining based analysis; assay type: functional, cell-based; settings: time 14.0 day
A2780 [3] = assay: Induction of cell cycle arrest in human A2780 cells assessed as accumulation of cells at G1 phase at 50 nM measured after 96 hrs by PI staining based flow cytometry analysis (reference value: 80.81%); assay type: functional
A2780 [4] = assay: Induction of cell cycle arrest in human A2780 cells assessed as accumulation of cells at G2 phase at 50 nM measured after 96 hrs by PI staining based flow cytometry analysis (reference value: 4.49%); assay type: functional
A2780 [5] = assay: Induction of cell cycle arrest in human A2780 cells assessed as accumulation of cells at G2 phase at 200 nM measured after 96 hrs by PI staining based flow cytometry analysis (reference value: 4.49%); assay type: functional
A2780 [6] = assay: Induction of apoptosis in human A2780 cells assessed as viable cells at 200 nM incubated for 96 hrs by Annexin-V/FITC and PI staining based flow cytometry analysis (reference value: 89.2%); assay type: functional; settings: read-out: Activity
A2780 [7] = assay: Induction of apoptosis in human A2780 cells assessed as early apoptotic cells at 200 nM incubated for 96 hrs by Annexin-V/FITC and PI staining based flow cytometry analysis (reference value: 14.14%); assay type: functional
A2780 [8] = assay: Induction of apoptosis in human A2780 cells assessed as late apoptotic cells at 200 nM incubated for 96 hrs by Annexin-V/FITC and PI staining based flow cytometry analysis (reference value: 3.79%); assay type: functional
A2780 [9] = assay: Effect on cellular senescence in human A2780 cells at 0.05 to 1 uM measured after 96 hrs by beta-galactosidase staining based analysis; assay type: functional, cell-based; settings: dose 0.05-1 µM
A2780 [10] = assay: Induction of autophagy in human A2780 cells assessed as change in MDC labeled fluorescence at upto 500 nM measured after 96 hrs by microscopic analysis; assay type: functional, cell-based
A2780 [11] = assay: Induction of mitochondrial membrane potential changes in human A2780 cells assessed as increase in Q3 phase at 0 to 5 uM measured after 96 hrs by flow cytometry analysis; assay type: functional, cell-based; settings: dose 0-5 µM
A2780 [12] = assay: Induction of mitochondrial membrane potential changes in human A2780 cells at upto 500 nM measured after 96 hrs by JC-1 staining based immunofluorescence assay; assay type: functional, cell-based
A2780 [13] = assay: Inhibition of MT-ND1 expression in human A2780 cells at 100 nM incubated for 12 hrs by RNA sequencing analysis; assay type: functional, cell-based
A2780 [14] = assay: Inhibition of MT-CYB expression in human A2780 cells at 100 nM incubated for 12 hrs by RNA sequencing analysis; assay type: functional, cell-based
HepG2 = assay: Antiproliferative activity against human HepG2 cells incubated for 168 hrs by SRB method; assay type: functional, cell-based; settings: HepG2, 168 h
NCI-H1975 = assay: Antiproliferative activity against human NCI-H1975 cells incubated for 168 hrs by SRB method; assay type: functional, cell-based; settings: NCI-H1975, 168 h
MIA PaCa-2 = assay: Antiproliferative activity against human MIA PaCa-2 cells incubated for 168 hrs by SRB method; assay type: functional, cell-based; settings: MIA PaCa-2, 168 h
[15] = Antiproliferative activity against human PBMC cells incubated for 168 hrs by SRB method; assay type: functional, cell-based
[16] = Apparent permeability across basolateral side to apical side in human Caco-2 cells at 3 uM incubated for 2 hrs by LC-MS/MS analysis; assay type: ADME, cell-based
Cytochrome P450 1A2 = target: T1, Cytochrome P450 1A2 (Homo sapiens, UniProt P05177); assay: Inhibition of CYP1A2 (unknown origin) using phenacetin as substrate in presence of NADPH by LC/MS/MS analysis; assay type: ADME
T1 sequence (P05177 whole entry): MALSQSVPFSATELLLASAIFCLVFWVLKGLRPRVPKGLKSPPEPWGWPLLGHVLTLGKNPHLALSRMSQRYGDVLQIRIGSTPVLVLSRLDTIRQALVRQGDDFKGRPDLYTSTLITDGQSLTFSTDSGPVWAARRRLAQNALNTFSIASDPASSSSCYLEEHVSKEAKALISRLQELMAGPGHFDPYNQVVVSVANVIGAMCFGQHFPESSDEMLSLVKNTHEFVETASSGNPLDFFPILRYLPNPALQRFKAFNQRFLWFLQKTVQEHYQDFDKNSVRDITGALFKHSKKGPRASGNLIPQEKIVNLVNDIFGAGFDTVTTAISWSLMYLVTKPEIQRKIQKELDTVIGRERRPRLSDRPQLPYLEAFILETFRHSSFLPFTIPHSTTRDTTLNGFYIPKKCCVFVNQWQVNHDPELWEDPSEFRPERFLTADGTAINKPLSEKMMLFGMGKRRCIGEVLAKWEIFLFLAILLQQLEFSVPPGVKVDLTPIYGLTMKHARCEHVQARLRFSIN

Cytochrome P450 2D6 = Cytochrome P450 2D6 (Homo sapiens, UniProt P10635); assay: Inhibition of CYP2D6 (unknown origin) using bufuralol as substrate in presence of NADPH by LC/MS/MS analysis; assay type: ADME
Sequence of Cytochrome P450 2D6 (P10635 whole entry): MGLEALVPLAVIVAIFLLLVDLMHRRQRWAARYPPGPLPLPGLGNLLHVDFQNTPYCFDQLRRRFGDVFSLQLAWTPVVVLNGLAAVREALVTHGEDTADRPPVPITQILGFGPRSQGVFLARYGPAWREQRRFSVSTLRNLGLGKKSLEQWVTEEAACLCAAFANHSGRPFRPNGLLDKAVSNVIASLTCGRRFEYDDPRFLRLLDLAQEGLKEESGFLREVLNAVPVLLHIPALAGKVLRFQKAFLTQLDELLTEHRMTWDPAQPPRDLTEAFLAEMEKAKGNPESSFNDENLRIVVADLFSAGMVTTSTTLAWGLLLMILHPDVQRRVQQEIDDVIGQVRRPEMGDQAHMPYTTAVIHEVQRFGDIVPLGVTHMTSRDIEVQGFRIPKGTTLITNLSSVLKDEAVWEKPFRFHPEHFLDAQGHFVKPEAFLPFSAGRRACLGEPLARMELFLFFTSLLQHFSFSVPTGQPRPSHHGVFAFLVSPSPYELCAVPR

[17] = Cmax in ICR mouse at 10 mg/kg, po measured upto 24 hrs by LC-MS/MS analysis; assay type: ADME, organism-based; parameters: time < 24 hrs, dose 10 mg/kg, route po; settings: in vivo
[18] = Clearance in ICR mouse at 1 mg/kg, iv measured upto 24 hrs by LC-MS/MS analysis; assay type: ADME, organism-based; settings: in vivo
[19] = MRT in ICR mouse at 10 mg/kg, po measured upto 24 hrs by LC-MS/MS analysis; assay type: ADME, organism-based; settings: in vivo
[20] = Half life in ICR mouse at 10 mg/kg, po measured upto 24 hrs by LC-MS/MS analysis; assay type: ADME, organism-based; settings: in vivo
A2780 [21] = assay: Inhibition of mitochondrial transcript in human A2780 cells assessed as decrease in ND1 expression by RT-qPCR analysis; assay type: functional, cell-based
A2780 [22] = assay: Effect on 18S mRNA level in human A2780 cells by RT-qPCR analysis; assay type: functional, cell-based
A2780 [23] = assay: Effect on POLRMT mRNA level in human A2780 cells by RT-qPCR analysis; assay type: functional, cell-based
A2780 [24] = assay: Effect on beta-actin mRNA level in human A2780 cells by RT-qPCR analysis; assay type: functional, cell-based
A2780 [25] = assay: Inhibition of mitochondrial transcript in human A2780 cells incubated for 12 hrs followed by compound removal and measured after 36 hrs by RT-qPCR analysis; assay type: functional, cell-based
A2780 [26] = assay: Antitumor activity against human A2780 cells xenografted in BALB/c nude mouse model assessed as decrease in tumor volume administered po daily and measured after 27 days; assay type: functional, organism-based; settings: dose 50-100 mg/kg, time 27.0 day
A2780 [27] = assay: Antitumor activity against human A2780 cells xenografted in BALB/c nude mouse model assessed as reduction in ATP5A level at 100 mg/kg, po by immunoblotting analysis; assay type: functional, organism-based
[28] = Toxicity in Balb/c mouse assessed as effect on heart at 100 mg/kg by H and E staining based analysis; assay type: organism-based; settings: in vivo
[29] = Acute toxicity in Balb/c mouse assessed as effect on kidney 100 mg/kg measured after 27 days by H and E staining based analysis; assay type: organism-based; settings: in vivo, 648 h, time 27 day

Cc1ccc(-c2cc(=O)oc3cc(O[C@H](C)C(=O)N4CC5CCC(C4)N5C)ccc23)c(C)c1
inhibition (A2780 [1]): Active | inhibition (A2780 [2]): inactive | Activity (A2780 [3]): 85.51% | Activity (A2780 [4]): 3.7% | Activity (A2780 [5]): 3.16% | viability at 0.2 µM (A2780 [6]): 90.7% | Activity (A2780 [7]): 0.73% | Activity (A2780 [8]): 4.58% | Activity (A2780 [9]): Active | Activity (A2780 [10]): inactive | Activity (A2780 [11]): inactive | Activity (A2780 [12]): inactive | inhibition (A2780 [13]): Active | inhibition (A2780 [14]): Active | IC50 (HepG2): 152 nM | IC50 (NCI-H1975): 108 nM | IC50 (MIA PaCa-2): 88 nM | IC50 [15]: > 50000 nM | Papp B→A at 2 h, 3 µM [16]: 8.3 ×10⁻⁶ cm/s | IC50 (Cytochrome P450 1A2): > 40000 nM | IC50 (Cytochrome P450 2D6): > 40000 nM | Cmax [17]: 369 ng/mL | clearance [18]: 38.2 mL/min/kg | MRT [19]: 3.3 h | half-life [20]: 2.3 h | inhibition (A2780 [21]): Active | Activity (A2780 [22]): inactive | Activity (A2780 [23]): inactive | Activity (A2780 [24]): inactive | inhibition (A2780 [25]): inactive | Activity (A2780 [26]): Dose-Dependent Effect | Activity (A2780 [27]): Active | Activity [28]: Non-Toxic | Activity [29]: Non-Toxic
